Experimental data taken from US20120295838A1, “Selective poly-substituted glycine antibiotics and related compositions” (priority 2008, published 2012).
Read-outs that look alike come from different tables or passages of the source. Square brackets hold non-standard residues; d marks the D form. Ends that are not written are not given here. Peptide text beside a SMILES is read from it. Gly(N-CH2CH2-imidazol-4-yl) = O=C(O)CNCCc1c[nH]cn1; Nspe = C[C@H](NCC(=O)O)c1ccccc1; Nphe = O=C(O)CNCc1ccccc1; Nlys = NCCCCNCC(=O)O

How the values were obtained:
human erythrocytes = experiment: Hemolysis assay; assay type: cell-based
In short: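 Heparinised fresh human erythrocytes, 20 vol % in PBS pH 7.4, mixed 1:1 with 1:2 serially diluted peptoid and incubated 1 h at 37 °C. PBS alone as 0% and 0.2 vol % Triton X-100 as 100% hemolysis; after 1200 g spin for 15 min, supernatant A350 read.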

[1] = test system: Staphyloccus aureus (ATCC #25923); experiment: Murine intraperitoneal infection model; assay type: in vivo; conditions: mouse, S. aureus I.P.
Method: Using a murine peritoneal injection mouse model, the ability of peptoids to treat infection was evaluated in vivo. The results from three separate studies of peptoid 1 and two of peptoid 1-Nhis6,12 against saline treated controls are shown in FIG. 7. The horizontal line represents the geometric mean of each population.
Murine intraperitoneal infection model. Bacteria was prepared by inoculating 5 mL of MHB with a single colony of Staphyloccus aureus (ATCC #25923) from a freshly streaked plate and grown overnight at 37 C. The following morning, the bacteria was subcultured by diluting 1/3 in MHB and grown for approximately 1 .5 hours. The bacteria were then diluted 10-fold in a 5% mucin in PBS solution and thoroughly mixed. A sample was reserved to later determine the amount of bacteria the mice received.
Mice were weighed, marked, and injected I.P. with 200 uL of S. aureus inoculum. Four hours post infection, mice were treated I.P. with 4 mg/kg peptoid (˜100 ug per mouse). The infection is allowed to proceed overnight. Mice were euthanized by CO2 asphyxiation after 24 hours, and the peritoneal cavity was exposed and lavaged with 5 mL PBS. The lavage was mixed and reserved on ice until plating. The lavages were diluted to 10^−5 (in1/10 increments) in PBS, and all dilutions were plated onto MH agar, in duplicate. 50 uL of lavage was spot plated, allowed to dry, and incubated overnight at 37° C. Colonies were counted the following day, and the CFU/ml of each sample was calculated. Plates that had too many colonies to count were assigned an arbitrary number of 1000 colonies.

six strains of S. aureus = experiment: Broad-spectrum antibacterial MIC, summary over S. aureus strains; assay type: cell-based; conditions: text summary of Table 7B; 10% hemolytic dose / MIC
Method: The activities of ampetoids tested against BSL2 Gram-positive strains, however, compared very favorably to those of pexiganan.
Broad-spectrum antibacterial assays. MICs of compounds were determined by microdilution procedure in Mueller-Hinton broth (MHB) in accordance with CLSI M7-A6 protocols in a manner similar to that described for the screen antibacterial assays. Inoculated microtiter plates were incubated at 35° C. for 24 hours prior to the result being recorded. Four ATCC strains that were used as standards are recommended by CLSI: Pseudomonas aeruginosa ATCC 27853, Escherichia coli ATCC 25922, Staphylococcus aureus ATCC 29213 and Enterococcus faecalis ATCC 29212. Other strains from the ATCC collection include Proteus vulgaris ATCC 49132, Proteus mirabilis ATCC 35659, Klebsiella pneumoniae ATCC 33495, Enterobacter aerogenes ATCC 35029 and Serratia marcescens ATCC 13880. S. aureus NRS100 (COL) is a well characterized methicillian-resistant S. aureus (MRSA) strain. The strains S. aureus VAN1 and S. aureus VAN2, vancomycin-resistant MRSA strains that were isolated in Michigan and Pennsylvania, were the first vancomycin-resistant strains clinically isolated. S. aureus NRS 119 and S. aureus NRS 120 are linezolid-resistant isolates from the Network on Antimicrobial Resistance in S. aureus (NARSA) collection. […]

Row | Compound | HD10 (human erythrocytes) | HD50 (human erythrocytes) | bacterial counts from the peritoneal lavage ([1]; 4 mg/kg peptoid I.P. four hours post infection, 24 hours, vs saline treated controls) | mice that died prematurely during the exposure period ([1]; 4 mg/kg peptoid I.P., eleven mice for 1-Nhis6,12) | HD10 (human erythrocytes; human, 1 h, pH 7.4) [µM] | HD50 (human erythrocytes; human, 1 h, pH 7.4) [µM] | selectivity ratios, range over S. aureus strains (six strains of S. aureus)
1 | C[C@@H](c1ccccc1)N(CC(=O)N(CCc1cnc[nH]1)CC(=O)N(CCCCN)CC(=O)N(CC(=O)N(CC(=O)N(CCCCN)CC(=O)N(CC(=O)N(CCc1cnc[nH]1)CC(N)=O)[C@@H](C)c1ccccc1)[C@@H](C)c1ccccc1)[C@@H](C)c1ccccc1)C(=O)CN(CCCCN)C(=O)CN(C(=O)CN(C(=O)CNCCCCN)[C@@H](C)c1ccccc1)[C@@H](C)c1ccccc1 [1-Nhis6,12, H-(Nlys-Nspe-Nspe-Nlys-Nspe-Nhis)2-NH2] (H-[Nlys][Nspe][Nspe][Nlys][Nspe][Gly(N-CH2CH2-imidazol-4-yl)][Nlys][Nspe][Nspe][Nlys][Nspe][Gly(N-CH2CH2-imidazol-4-yl)]-NH2) | >200/>200 μM | >200/>200 μM | not reduced | eight | – | – | –
2 | GIGKFLKKAKKFGKAFVKILKK-NH2 [pexiganan, reference compound] | – | – | – | – | 73 | > 200 | 2.8-23
3 | NCCCCNCC(=O)N(CC(=O)N(CC(=O)N(CCCCN)CC(=O)N(CC(=O)N(CC(=O)N(CCCCN)CC(=O)N(CC(=O)N(CC(=O)N(CCCCN)CC(=O)N(CC(=O)N(CC(N)=O)Cc1ccccc1)Cc1ccccc1)Cc1ccccc1)Cc1ccccc1)Cc1ccccc1)Cc1ccccc1)Cc1ccccc1)Cc1ccccc1 [1achiral, H-(Nlys-Npm-Npm)4-NH2] (H-[Nlys][Nphe][Nphe][Nlys][Nphe][Nphe][Nlys][Nphe][Nphe][Nlys][Nphe][Nphe]-NH2) | 180 µM | > 200 µM | – | – | – | – | 19-39
